Data taken from patent US20030045482A1, “Using D-ribose with or without anti-microbial agents to enhance healing and subsequent recovery by both synthesizing and sparing NAD derivatives” (priority 2000, published 2003).

Legend:
ATP synthesis = conditions: with de novo D-ribose; 72 to 96 hours ordinarily required from glucose; cited from earlier work
clean wounds = test: rate of healing of clean wounds; assay type: in vivo; conditions: ribose by itself
Description: (§1) Only with respect to the skin has ribose been used for healing purposes, and these are for wound healing in which ribose in combination with other nutrients improved the rate of healing. […] It then became reasonable to assume that this combination should be extended to internal wounds.

appetite = appetite after D-ribose aqueous solution given during a meal; assay type: in vivo, people
Description: This brings up the paradoxical role that ribose plays with respect to appetite. Ribose is offered to consumers primarily because it is rate-limiting in the production of phosphoribosylpyrophosphate (PRPP), a precursor for salvage and for de novo adenine nucloeotide synthetic pathways, which maintain, AMP and ADP (adenosine diphosphate) for re-synthesis of ATP. The high-energy bonds of ATP are the direct source for muscle contraction including myocardial contractions but also energize every cell in the body, especially the immune system under attack. The presence of de novo D-ribose not only enables ATP to be synthesized much faster, but its presence also serves to stimulate the salvage of these nucleotides. With this in mind, a curious thing has been observed. […] The only explanation for this is that the salvage of these nucleotides especially ATP is stimulated by forcibly spraying the ribose onto the tongue. This causes the stomach to send out less of the hormone ghrelin and a full feeling ensues with less food. If a person is ill, care must be taken not to spray ribose forcibly on the tongue by pump action or compressed gas, but rather have it be swallowed immediately or given parenterally.

infected wounds = test: rate of healing of infected wounds, ribose combined with antibiotics; assay type: in vivo
Description: as §1

For `O=C[C@H](O)[C@H](O)[C@H](O)CO` [D-ribose], the “time for synthesis of ATP” value (ATP synthesis) is given as no less than 8 h, the “rate of healing of clean wounds” value (clean wounds) is given as “will improve the rate of healing of clean wounds” and the effect on appetite (appetite; aqueous solution sprayed forcibly by pump action on the tongue during a meal) is given as “causes the appetite to abate in many people”. For the same molecule, the effect on appetite (appetite; ribose swallowed) was “far less such effect” and the “rate of healing of infected wounds” value (infected wounds) was “will improve the rate of healing infected wounds”.
